Measured values: patent US7462735B2, “Amino acid diamides in non α position which are useful as adjuvants for administration of biological active agents” (Laboratorios Farmaceuticos Rovi, S.A., priority 2003, dated 2008)

Experiments:
[1] = Intracolonic absorption of bemiparin in the rat, with or without adjuvant (plasma anti-Xa activity); format: in vivo; conditions: for effect on colonic absorption of bemiparin measured by plasma anti-Xa activity: adjuvant given with bemiparin, result in words; for anti-Xa activity/ml in plasma: 30 mg/kg bemiparin (+ 30 mg/kg adjuvant)
Description: The properties of the invention products have been investigated in an experimental model described below that consists of measuring the intracolonic absorption in the rat of a low-molecular-weight heparin, bemiparin, with a mean molecular mass of around 3,500 daltons and an anti-Xa activity of around 100 units/mg.
The activity of all compounds of the examples described above was studied in animals according to the following experimental model:
Evaluate the absorption of the test product when administered by intracolonic route to rats, whether or not in the presence of adjuvants. The plasma concentration is measured by assaying the Factor Xa-inhibition capacity. The rat is used because it is one of the species commonly used in this type of test.
One intracolonic administration.
25% (v/v) propylene glycol in bidistilled water. After dissolving the test product along with the adjuvant if applicable, adjust the pH to approximately 7.4 with NaOH.
The animals will be in fasted state for approximately 18 h with free access to water
The animals will be randomized to the various experimental groups, with one remaining animal as a reserve per group:
On the day of the test, the treatments will be administered by intracolonic route, following anaesthesia with ketamine. Administration will be done using a catheter of approximately 8 cm, connected to a 1-ml syringe. The catheter will be introduced in its entirety into the colon through the anus and the test product will be administered slowly into the colon.
Following the administration of the test product, within the times established in the table, a citrated blood sample (3.8% at a ratio of 1:9) will be drawn by intracardiac puncture under anaesthesia with ketamine.
Blood centrifugation: 3000 rpm, 10 minutes, 4° C. Plasma freezing (−20±5° C.) until determining the anti-Factor Xa activity.
A control group that will receive no treatment will be included, simply that one blood sample will be drawn per animal under the same conditions as the treatment group, with considered to be the baseline value of anti-Xa activity.
The anti-Xa activity will be assayed by the chromogenic method (anti-FXa activity assay kit).
The mean, the standard deviation […] and the standard error of the mean of each experimental group will be calculated for each parameter. If considered adequate, the values obtained in the different experimental groups will be compared by a statistical analysis.

Factor Xa = test: Anti-Xa activity of the heparin material (units/mg); format: biochemical; conditions: specific activity of the heparin material

Row | Compound | melting point [°C] | also measured
1 | O=C(O)CCCNC(=O)c1ccccc1NC(=O)c1cccc(Cl)c1 [Example 22, 4-[2-(3-chlorobenzoylamino)benzoylamino]butanoic acid] | 165 to 166 | –
2 | O=C(O)CCCCCNC(=O)c1ccc(NC(=O)c2ccccc2O)cc1 [Example 2, 6-[4-(2-hydroxybenzoylamino)benzoylamino]hexanoic acid] | 201 to 203 | effect on colonic absorption of bemiparin measured by plasma anti-Xa activity [1]: no effect
3 | O=C(O)CCCNC(=O)c1ccc(NC(=O)c2ccccc2O)cc1 [Example 1, 4-[4-(hydroxybenzoylamino)benzoylamino]butanoic acid] | 211 to 213 | effect on colonic absorption of bemiparin measured by plasma anti-Xa activity [1]: no effect
4 | O=C(O)CCCNC(=O)c1ccccc1NC(=O)c1ccccc1Br [Example 21, 4-[2-(2-bromobenzoylamino)benzoylamino]butanoic acid] | 117 to 118 | –
5 | COc1ccc(C(=O)Nc2ccccc2C(=O)NCCCC(=O)O)cc1 [Example 16, 4-[2-(4-methoxybenzoilamino)benzoilamino]butanoic acid] | 172 to 174 | –
6 | COc1ccc(C(=O)Nc2ccccc2C(=O)NCCCC(=O)O)c(O)c1 [Example 13, 4-[2-(2-hydroxy-4-methoxybenzoylamino)benzoylamino]butanoic acid] | 201 to 203 | –
7 | O=C(O)CCCCCCCNC(=O)c1ccccc1NC(=O)c1ccccc1O [Example 6, 8-[2-(2-hydroxybenzoylamino)benzoylamino]octanoic acid] | 124 to 125 | –
8 | O=C(O)CCCNC(=O)c1ccccc1NC(=O)c1cc([N+](=O)[O-])ccc1O [Example 12, 4-[2-(2-hydroxy-5-nitrobenzoylamino)benzoylamino]butanoic acid] | 239 to 241 | –
9 | O=C(O)CCNC(=O)c1ccccc1NC(=O)c1ccccc1O [Example 9, 3-[2-(2-hydroxybenzoylamino)benzoylamino]propanoic acid] | 200 to 202 | –
10 | O=C(O)CCCNC(=O)c1ccccc1NC(=O)c1ccc(Cl)cc1 [Example 17, 4-[2-(4-chlorobenzoylamino)benzoylamino]butanoic acid] | 182 to 184 | effect on colonic absorption of bemiparin measured by plasma anti-Xa activity [1]: strong increase
11 | O=C(O)CCCNC(=O)c1ccccc1NC(=O)c1cc(Cl)ccc1O [Example 19, 4-[2-(5-chloro-2-hydroxybenzoylamino)benzoylamino]butanoic acid] | 222 to 223 | –
12 | O=C(O)CCCNC(=O)c1ccccc1NC(=O)c1ccccc1Cl [Example 20, 4-[2-(2-chlorobenzoylamino)benzoylamino]butanoic acid] | 110 to 112 | –
13 | O=C(O)CCCNC(=O)c1ccccc1NC(=O)c1ccc([N+](=O)[O-])cc1O [Example 11, 4-[2-(2-hydroxy-4-nitrobenzoylamino)benzoylamino]butanoic acid] | 209 to 211 | effect on colonic absorption of bemiparin measured by plasma anti-Xa activity [1]: strong increase
14 | O=C(O)CCCCNC(=O)c1ccccc1NC(=O)c1ccccc1O [Example 5, 5-[2-(2-hydroxybenzoylamino)benzoylamino]pentanoic acid] | 168 to 170 | –
15 | O=C(O)CCCNC(=O)c1ccccc1NC(=O)c1ccccc1[N+](=O)[O-] [Example 8, 4-[2-(2-nitrobenzoylamino)benzoylamino]butanoic acid] | 142 to 144 | –
16 | COc1ccc(O)c(C(=O)Nc2ccccc2C(=O)NCCCC(=O)O)c1 [Example 14, 4-[2-(2-hydroxy-5-methoxybenzoylamino)benzoylamino]butanoic acid] | 191 to 193 | –
17 | O=C(O)CCCNC(=O)c1ccccc1NC(=O)c1ccc([N+](=O)[O-])cc1 [Example 15, 4-[2-(4-nitrobenzoylamino)benzoylamino]butanoic acid] | 206 to 208 | –
18 | Bemiparin | – | anti-Xa activity/ml in plasma ([1]; 0.5 h post-administration): 0.103; anti-Xa activity/ml in plasma ([1]; 2 h post-administration): 0.222; anti-Xa activity/ml in plasma ([1]; 4 h post-administration): 0.345; anti-Xa activity (Factor Xa): around 100 units/mg
19 | O=C(O)CCCNC(=O)c1ccccc1NC(=O)c1ccc(Cl)cc1O [Example 18, 4-[2-(4-chloro-2-hydroxybenzoylamino)benzoylamino]butanoic acid] | 205 to 206 | –
20 | O=C(O)CCCNC(=O)c1ccccc1NC(=O)c1ccccc1O [Example 4, 4-[2-(2-hydroxybenzoylamino)benzoylamino]butanoic acid] | 173 to 174 | effect on colonic absorption of bemiparin measured by plasma anti-Xa activity [1]: strong increase
21 | O=C(O)CCCCCNC(=O)c1ccccc1NC(=O)c1ccccc1O [Example 7, 6-[2-(2-hydroxybenzoylamino)benzoylamino]hexanoic acid] | 165 to 167 | –
22 | O=C(O)CCCNC(=O)c1cccc(NC(=O)c2ccccc2O)c1 [Example 3, 4-[3-(2-hydroxybenzoylamino)benzoylamino]butanoic acid] | 172 to 174 | effect on colonic absorption of bemiparin measured by plasma anti-Xa activity [1]: no effect
